The record followed here is ChEMBL document CHEMBL1151598, “Synthesis of in vivo potent antimalarial 1,2,4-trioxanes” (Bioorg Med Chem Lett, 1992).

Assay [1] relates to Mus musculus. Description: Compound was tested for in vivo antimalarial activity against Plasmodium berghei in male mice (Mus musculus) at dose of 90 mg/kg (intraperitoneal); A - Active. It counts as functional, organism-based. More on the design: dose 90 mg/kg.
For assay [2], the system named is Mus musculus. Description: Compound was tested for in vivo antimalarial activity against Plasmodium berghei in male mice (Mus musculus) at dose of 30 mg/kg (ip); A - Active. It counts as functional, organism-based. Set-up: dose 30 mg/kg.

The source made the active and inactive calls. The calls are words filed in the database; no cut-off is given here.

On to `C=C(c1ccccc1)C1COC2(OO1)C1CC3CC(C1)CC2C3` (stereo not drawn), for which the outcome with Mus musculus [1] was Active.

With `C=C(c1ccc(OC)cc1)C1COC2(OO1)C1CC3CC(C1)CC2C3` (stereo not drawn), the result in the assay with Mus musculus [2] and with Mus musculus [1] was Active.

In the case of `C=C(c1ccc(C)cc1C)C1COC2(OO1)C1CC3CC(C1)CC2C3` (stereo not drawn), the result in the assay with Mus musculus [1] was Active.

For the compound `C=C(c1ccc(F)cc1)C1COC2(OO1)C1CC3CC(C1)CC2C3` (stereo not drawn), the result in the assay with Mus musculus [1] was Active.

As to `C=C(c1ccc(Cl)cc1)C1COC2(OO1)C1CC3CC(C1)CC2C3` (stereo not drawn), the result in the assay with Mus musculus [2] and with Mus musculus [1] was Active.

Take `C=C(c1ccc(C)cc1)C1COC2(OO1)C1CC3CC(C1)CC2C3` (stereo not drawn): the result with Mus musculus [1] was Active.
